Laboratory results published in publication PMC10865409, “The prFMNH2-binding chaperone LpdD assists UbiD decarboxylase activation” (The Journal of Biological Chemistry, 2024).

Legend:
[1] = biological target: T1, UbiD (Strep-tagged apo-UbiD) (Escherichia coli, UniProt P0AAB4); experiment: decarboxylation by HPLC; Strep-UbiD plus LpdD-containing lysate; assay type: biochemical; conditions: anaerobic; LpdD lysate supernatant with or without prFMNH2; purified UbiD alone inactive
T1 construct: Strep-tagged, purified apo-UbiD reconstituted with LpdD-containing E. coli lysate and prFMNH2; 4-hydroxybenzoate row is endogenous UbiD of E. coli BL21(DE3)
T1 sequence (P0AAB4 1-497): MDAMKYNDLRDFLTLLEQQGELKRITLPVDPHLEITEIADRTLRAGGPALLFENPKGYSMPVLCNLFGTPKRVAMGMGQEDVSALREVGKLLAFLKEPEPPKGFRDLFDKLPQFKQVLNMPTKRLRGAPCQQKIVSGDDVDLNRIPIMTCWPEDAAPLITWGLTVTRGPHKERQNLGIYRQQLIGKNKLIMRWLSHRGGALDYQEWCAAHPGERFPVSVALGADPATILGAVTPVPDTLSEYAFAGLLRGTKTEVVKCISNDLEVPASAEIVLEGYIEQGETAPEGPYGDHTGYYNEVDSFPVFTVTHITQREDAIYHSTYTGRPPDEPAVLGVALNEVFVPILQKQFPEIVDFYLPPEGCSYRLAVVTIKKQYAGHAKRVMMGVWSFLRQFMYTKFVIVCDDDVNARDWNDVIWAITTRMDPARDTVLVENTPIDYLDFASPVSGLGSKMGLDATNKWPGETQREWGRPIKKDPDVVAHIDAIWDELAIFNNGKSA

LpdD [2] = biological target: T2, LpdD (Lactiplantibacillus plantarum, UniProt F9UT68, H61A); experiment: UV-Vis after in vitro reconstitution and desalting; assay type: binding; conditions: anaerobic, 2:1 prFMNH2:protein, 50 mM Tris pH 7.5, 200 mM NaCl, 1 mM MnCl2
T2 construct: full length, N-terminal hexahistidine tag (best crystals; C-terminal also made), E. coli codon-optimized gene, E. coli BL21(DE3), Ni-NTA; dimer
T2 sequence (F9UT68 whole entry H61A): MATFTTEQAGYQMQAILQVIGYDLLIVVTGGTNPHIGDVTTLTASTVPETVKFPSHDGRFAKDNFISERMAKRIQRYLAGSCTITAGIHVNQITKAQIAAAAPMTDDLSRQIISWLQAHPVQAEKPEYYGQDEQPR

LpdD [3] = biological target: T3, LpdD (Lactiplantibacillus plantarum, UniProt F9UT68); experiment: UV-Vis after in vitro reconstitution and desalting; assay type: binding; conditions: anaerobic, 2:1 prFMNH2:protein, 50 mM Tris pH 7.5, 200 mM NaCl, with or without MnCl2
T3 construct: full length, N-terminal hexahistidine tag (best crystals; C-terminal also made), E. coli codon-optimized gene, E. coli BL21(DE3), Ni-NTA; dimer
T3 sequence (F9UT68 1-136): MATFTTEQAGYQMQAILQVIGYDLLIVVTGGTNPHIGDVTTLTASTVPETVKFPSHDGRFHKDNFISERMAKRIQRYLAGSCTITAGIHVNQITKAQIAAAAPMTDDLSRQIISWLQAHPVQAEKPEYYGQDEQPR

[4] = biological target: T1, UbiD (Strep-tagged apo-UbiD); experiment: ESI-MS of reconstituted Strep-UbiD; assay type: binding; conditions: reconstituted with LpdD-containing cell lysate and prFMNH2
[5] = biological target: the molecule itself; experiment: crystal structure; N-terminally His-tagged LpdD, ca 15 mg/ml, 1.6 M magnesium sulfate heptahydrate, 0.1 M Mes pH 6.5, 20 °C; space group I222, two monomers in the asymmetric unit; dimer built by crystallographic symmetry
[6] = biological target: T4, Strep-tagged Escherichia coli UbiD (Escherichia coli, UniProt P0AAB4 1-497); experiment: pull-down; Strep-tagged UbiD and His-tagged LpdD mixed in an equimolar ratio, pulled down with streptavidin beads under anaerobic conditions; SDS-PAGE and His-Western blot; conditions: both partners purified
T4 construct: UbiD, prFMN-dependent decarboxylase of ubiquinone biosynthesis, Escherichia coli; also called Strep-UbiD; Strep-apo-UbiD; source: purified
T4 sequence (looked up): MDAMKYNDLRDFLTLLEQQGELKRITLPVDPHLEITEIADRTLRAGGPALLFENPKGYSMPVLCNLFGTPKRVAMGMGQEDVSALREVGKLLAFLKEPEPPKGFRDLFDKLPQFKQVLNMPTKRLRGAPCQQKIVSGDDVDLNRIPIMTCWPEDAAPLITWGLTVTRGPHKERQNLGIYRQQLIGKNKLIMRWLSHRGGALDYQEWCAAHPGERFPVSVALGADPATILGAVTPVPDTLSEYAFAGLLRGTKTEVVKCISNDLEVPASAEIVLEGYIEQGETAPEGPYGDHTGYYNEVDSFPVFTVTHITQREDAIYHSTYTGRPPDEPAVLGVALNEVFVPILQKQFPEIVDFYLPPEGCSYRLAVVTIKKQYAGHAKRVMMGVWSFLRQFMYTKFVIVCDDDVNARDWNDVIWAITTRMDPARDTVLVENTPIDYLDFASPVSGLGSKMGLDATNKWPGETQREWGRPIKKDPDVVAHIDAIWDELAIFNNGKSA

[7] = biological target: the molecule itself; experiment: crystal structure; LpdD H35A, space group P4_(1)2_(1)2, one molecule in the asymmetric unit, distinct crystallization conditions; dimer built by crystallographic symmetry

O=C(O)c1ccc(O)c(O)c1 [compound 2, 3,4-dihydroxy-benzoic acid]
decarboxylation by HPLC; Strep-UbiD plus LpdD-containing lysate [1]: activity was observed when LpdD-containing cell lysate supernatant was included in the assays

Cc1cc2c3c(c1C)C(C)(C)CCN3c1c([nH]c(=O)[nH]c1=O)N2C[C@H](O)[C@H](O)[C@H](O)COP(=O)(O)O [prFMNH2]
UV-Vis after in vitro reconstitution and desalting (LpdD [2]): purified H61A variant reveals this mutation does not abolish prFMNH2 binding
UV-Vis after in vitro reconstitution and desalting (LpdD [3]): In vitro reconstitution of purified apo-LpdD with prFMNH2 results in similar spectral features

Cc1cc2c3c(c1C)C(C)(C)CC=[N+]3c1c(nc([O-])[nH]c1=O)N2C[C@H](O)[C@H](O)[C@H](O)COP(=O)(O)O [prFMN^iminium]
ESI-MS of reconstituted Strep-UbiD [4]: reconstituted Strep-UbiD reveals the presence of catalytically relevant prFMN^iminium species

B1: LpdD (lp_0272) from Lactobacillus plantarum, His-tagged (natural protein)
chain: MATFTTEQAGYQMQAILQVIGYDLLIVVTGGTNPHIGDVTTLTASTVPETVKFPSHDGRFHKDNFISERMAKRIQRYLAGSCTITAGIHVNQITKAQIAAAAPMTDDLSRQIISWLQAHPVQAEKPEYYGQDEQPR
notes: LpdD, small protein associated with the UbiD-type gallate decarboxylase LpdC, Lactobacillus plantarum, locus lp_0272; E. coli codon-optimized synthetic gene; N- and C-terminally His-tagged LpdD were both made (pET28a and pET30a); the best crystals came from the N-terminally tagged protein; The pull-down says only 'His-tagged LpdD'; The tag is detected by His-Western blot in the pull-down; also …
stoichiometry N [5]: 2
binding result [6]: binds

B2: LpdD H35A variant (natural protein, Lactobacillus plantarum)
chain: MATFTTEQAGYQMQAILQVIGYDLLIVVTGGTNPAIGDVTTLTASTVPETVKFPSHDGRFHKDNFISERMAKRIQRYLAGSCTITAGIHVNQITKAQIAAAAPMTDDLSRQIISWLQAHPVQAEKPEYYGQDEQPR
notes: LpdD, Lactobacillus plantarum, locus lp_0272, with H35A made by site-directed mutagenesis of the WT construct; source: E. coli BL21(DE3), purified
stoichiometry N [7]: 2
